Earlier results on one compound are cited in patent US20060030591A1 (Wyeth, priority 2004, published 2006).

One data set has as its system uterus. The following applies: qualitative.
The test system of data set [1] is tamoxifen-resistent MCF-7 breast cancer xenografts. Particulars: recent preclinical studies, qualitative.
Data set [2] has as its system tamoxifen-sensitive cells lines. Particulars: other studies, qualitative.

Each structure is given as a SMILES string.

Consider `Cc1c(-c2ccc(O)cc2)n(Cc2ccc(OCCN3CCCCC3)cc2)c2ccc(O)cc12.Cl` [pipindoxifene, 2-(4-hydroxyphenyl)-3-methyl-1-[4-(2-piperidin-1-yl-ethoxy)-benzyl]-1H-indol-5-ol hydrochloride], for which the “effect in the uterus” value in the data set with uterus (Greenberger, et al., Clin. Cancer Res. (2001)) is listed as “antiestrogenic in the uterus”. Moreover, in the data set with uterus (tissue selective estrogenic effects), the uterotropic activity entry was “little or no uterotropic activity”. Moreover, in data set [1], the “growth of tamoxifen-resistent MCF-7 breast cancer xenografts” value is on record as “inhibited the growth”. Besides, the “effectiveness in tamoxifen-sensitive cells lines” value in data set [2] is reported as “show effectiveness”.
